# Target: T1, STAT6 (Homo sapiens, UniProt P42226)
# T1 sequence (P42226 1-847): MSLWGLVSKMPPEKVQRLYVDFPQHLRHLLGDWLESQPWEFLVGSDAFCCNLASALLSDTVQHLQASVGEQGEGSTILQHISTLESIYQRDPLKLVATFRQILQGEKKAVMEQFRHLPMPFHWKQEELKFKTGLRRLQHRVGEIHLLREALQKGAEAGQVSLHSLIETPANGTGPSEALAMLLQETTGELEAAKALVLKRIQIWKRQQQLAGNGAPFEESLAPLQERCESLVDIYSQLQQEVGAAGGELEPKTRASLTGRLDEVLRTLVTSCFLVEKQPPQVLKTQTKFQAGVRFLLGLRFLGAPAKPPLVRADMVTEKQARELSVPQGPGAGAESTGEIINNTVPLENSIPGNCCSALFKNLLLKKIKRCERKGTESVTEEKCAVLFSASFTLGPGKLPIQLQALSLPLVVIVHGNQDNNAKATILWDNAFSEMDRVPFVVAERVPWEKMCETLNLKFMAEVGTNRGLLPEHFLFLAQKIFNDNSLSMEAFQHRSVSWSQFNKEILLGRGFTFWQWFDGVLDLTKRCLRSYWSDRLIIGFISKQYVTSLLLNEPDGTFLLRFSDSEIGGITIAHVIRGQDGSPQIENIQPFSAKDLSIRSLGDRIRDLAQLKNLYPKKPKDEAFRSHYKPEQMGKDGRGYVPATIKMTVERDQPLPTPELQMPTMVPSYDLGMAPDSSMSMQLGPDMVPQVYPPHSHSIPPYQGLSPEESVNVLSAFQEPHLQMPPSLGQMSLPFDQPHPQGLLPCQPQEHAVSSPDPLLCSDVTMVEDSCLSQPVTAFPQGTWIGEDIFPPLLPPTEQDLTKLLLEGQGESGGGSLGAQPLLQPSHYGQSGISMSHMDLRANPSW
# Assay: Fluorescence polarization competition with FAM-labelled IL-4Rα Tyr631 phosphopeptide for binding to STAT6
# Conditions: other phosphate-containing STAT6 inhibitors; competition with FAM-Ala-pTyr-Lys-Pro-Phe-Gln-Asp-Leu-Ile-NH2
# From the text: The following structures as phosphate esters were synthesized and assayed them for the ability to compete with FAM-Ala-pTyr-Lys-Pro-Phe-Gln-Asp-Leu-Ile-NH2, derived from Tyr631 of IL-4Rα, for binding to STAT6 using fluorescence polarization (FAM=5-carboxyfluorescein). The fluorescence polarization methodology was adapted from Wu et al., 1997, which is incorporated herein by reference. Amide bond replacements, cyclic amides, and cyclic lactams in the central part of the compound were explored.
row,Compound,IC50 [nM]
1,CCN(CC)C(=O)[C@@H]1CCCN1C(=O)[C@@H](NC(=O)/C=C(\C)c1ccc(OP(=O)(O)O)cc1)C(C)(C)C [PM-302H-B],377 ± 90
2,CC(C)(C)[C@H](NC(=O)/C=C/c1ccc(OP(=O)(O)O)cc1)C(=O)N1CCC[C@H]1C(=O)N(c1ccccc1)c1ccc(I)cc1 [PM-287H],73 ± 10
3,C/C(=C\C(=O)N[C@H](C(=O)N1CCC[C@H]1C(=O)N(c1ccccc1)c1ccccc1)C(C)(C)C)c1ccc(OP(=O)(O)O)cc1 [PM-300H-B],89 ± 10
4,CC(C)(C)[C@H](NC(=O)/C=C/c1ccc(OP(=O)(O)O)cc1)C(=O)N1CCC[C@H]1C(=O)N(c1ccccc1)c1ccccc1 [PM-300H-A],120 ± 40
5,C/C(=C\C(=O)N[C@H](C(=O)N[C@@H](C)C(=O)N(C)c1ccccc1)C(C)(C)C)c1ccc(OP(=O)(O)O)cc1 [PM-26I],120 ± 16
6,C/C(=C\C(=O)N[C@H](C(=O)N1CCC[C@H]1C(=O)N(C)C1CCCCC1)C(C)(C)C)c1ccc(OP(=O)(O)O)cc1 [PM-70I],230 ± 140
7,C/C(=C\C(=O)N[C@H](C(=O)N1CCC[C@H]1C(=O)N(C)c1ccccc1)C(C)(C)C)c1ccc(OP(=O)(O)O)cc1 [PM-301H],117 ± 30
8,C/C(=C\C(=O)N[C@H](C(=O)N1CCC[C@H]1C(=O)Nc1ccccc1)C(C)(C)C)c1ccc(OP(=O)(O)O)cc1 [PM-302H-A],268 ± 70
9,C/C(=C\C(=O)N[C@H](C(=O)N1CCC[C@H]1C(=O)N(c1ccccc1)c1ccc(I)cc1)C(C)(C)C)c1ccc(OP(=O)(O)O)cc1 [PM-286H],53 ± 10

# Same assay, conditions: select phosphate-containing STAT6 inhibitors; competition with FAM-Ala-pTyr-Lys-Pro-Phe-Gln-Asp-Leu-Ile-NH2
row,Compound,IC50 [nM]
1,C/C(=C\C(=O)N[C@H](C(=O)NC1CCCCN(c2ccccc2)C1=O)C(C)(C)C)c1ccc(OP(=O)(O)O)cc1 (some centres unmarked) [PM-60I],2330 ± 500
2,C/C(=C\C(=O)N[C@H](C(=O)N1CCC[C@H]1C(=O)N1CCCc2ccccc21)C(C)(C)C)c1ccc(OP(=O)(O)O)cc1 [PM-87I],240 ± 130
3,C/C(=C\C(=O)N[C@H]1CCCCN(CC(=O)N(C)c2ccccc2)C1=O)c1ccc(OP(=O)(O)O)cc1 [PM-28I],630 ± 13
4,C/C(=C\C(=O)N[C@H](C(=O)N1CCC[C@H]1C(=O)N1CCCCC1)C(C)(C)C)c1ccc(OP(=O)(O)O)cc1 [PM-67I-A],370 ± 90
5,C/C(=C\C(=O)N[C@H](C(=O)N1CCC[C@H]1C(=O)N1CCN(C)CC1)C(C)(C)C)c1ccc(OP(=O)(O)O)cc1 [PM-67I-C],1900 ± 840
6,C/C(=C\C(=O)N[C@H](C(=O)N1CCC[C@H]1CCCCc1ccccc1)C(C)(C)C)c1ccc(OP(=O)(O)O)cc1 [PM-10I],2090 ± 930
7,C/C(=C\C(=O)N[C@H](C(=O)N1CCC[C@H]1C(=O)N1CCOCC1)C(C)(C)C)c1ccc(OP(=O)(O)O)cc1 [PM-67I-B],103 ± 50
8,C/C(=C\C(=O)N[C@H](C(=O)N1CCC[C@H]1C(=O)N1CCc2ccccc21)C(C)(C)C)c1ccc(OP(=O)(O)O)cc1 [PM-59I],260 ± 90
9,C/C(=C\C(=O)N[C@H](C(=O)N1CCC[C@H]1/C=C/CCc1ccccc1)C(C)(C)C)c1ccc(OP(=O)(O)O)cc1 [PM-9I],771 ± 290
10,C/C(=C\C(=O)NC1CCc2cccc3c2N(C1=O)[C@H](C(=O)N(C)c1ccccc1)C3)c1ccc(OP(=O)(O)O)cc1 (some centres unmarked) [PM-34I],280 ± 60
11,C/C(=C\C(=O)N[C@H](C(=O)N1CCC[C@H]1C(=O)N1CCc2ccccc2C1)C(C)(C)C)c1ccc(OP(=O)(O)O)cc1 [PM-71-A],50 ± 40

# Test system: Stat5
# Assay: Selectivity: Stat5 phosphorylation in EGF-stimulated MDA-MB-468 cells
# Type: cell-based
# Conditions: serum starved MDA-MB-468 cells, 2 hr
# Protocol: (§1) Compounds were screened at 5 μM for their ability to inhibit IL-4 stimulated phosphorylation of STAT6 in Beas-2B immortalized human airway cells. Cells were treated with prodrug for 2 hr and then stimulated with IL-4. After 30 min cells were lysed and pSTAT6 and total STAT6 were measured with western blots (FIG. 7). Without being bound by theory, the inhibition observed is consistent with compounds entering cells, being stripped of the POM groups, binding to the SH2 domain of STAT6, blocking binding to IL-4Rα and preventing phosphorylation of Tyr641. […] Compounds resulting in <10% residual phosphorylation were taken on to MTS cytotoxicity assays and dose response assays. (FIG. 8). The cyclic aromatic amides PM-63I, PM-80I, PM-81I, and PM-86I were very potent with IC50 values from 50-500 nM. […] With the exception of PM-43I, concentrations that inhibit STAT6 phosphorylation are 20-100 fold lower than those resulting in toxicity. STAT6 inhibitors were assayed for their ability to inhibit the phosphorylation of STAT 1, STAT 3, STAT 5, Akt, and FAK, all processes that depend on SH2 domain-phosphotyrosine interactions (Mandal, P. K. et al. 2011). Serum starved MDA-MB-468 breast cancer cells were treated with STAT6 inhibitors for 2 hr and then were stimulated with EGF (See FIGS. 9A and 9B).
row,Compound,cross reactivity with Stat5
1,C/C(=C\C(=O)N[C@H](C(=O)N1CCC[C@H]1C(=O)N1CCc2ccccc21)C(C)(C)C)c1ccc(C(F)(F)P(=O)(OCOC(=O)C(C)(C)C)OCOC(=O)C(C)(C)C)cc1 [PM-63I],significant cross reactivity

# Test system: not listed separately
# Assay: Toxicity: weights of mice during challenge with different doses
# Type: in vivo
# Conditions: different doses
# Protocol: (§2) The issue of toxicity was addressed with the newer synthetic STAT6 peptidomimetic agents 86i and 43i in two ways. First, the inventors determined the effect of each inhibitor on asthma-related parameters in fungus-challenged mice. […] Second, the weights of mice were measured during challenge with the different doses of both STAT6 inhibitors.
row,Compound,toxicity by weight gain over the period of drug administration
1,C/C(=C\C(=O)N[C@H](C(=O)N1CCC[C@H]1C(=O)N1CCCc2ccccc21)C(C)(C)C)c1ccc(C(F)(F)P(=O)(OCOC(=O)C(C)(C)C)OCOC(=O)C(C)(C)C)cc1 [PM-86I],no toxicity

# Test system: asthma-related parameters
# Assay: Dose effect on asthma-related parameters in fungus-challenged mice
# Type: in vivo
# Conditions: dose of 5 micrograms
# Protocol: as §2
# Mice were challenged intranasally with a clinical isolate of 4×10^5 A. niger conidia every two days for a total of 8 challenges and treated with 50 μg of the indicated β-agonist, liposome vehicle (DLPC) and/or PM-242H (5 or 50 μg) intranasally as indicated and the allergic airway disease phenotype was determined according to previously described methods (Porter, P. et al. 2009).
# Allergic airway disease was assessed as previously described (Porter, P. et al. 2009). Changes in respiratory system resistance (RRS) in response to intravenous acetylcholine challenge, bronchoalveolar lavage (BAL) fluid differential counts, and analysis of lung IL-4, IL-17A and IFN-γ producing cells by enzyme linked immunocell spot assay (ELISpot) were performed as previously described (Lee, S. H. et al. 2003; Polikepahad, S. et al. 2010).
Compound,inhibition of airway hyperresponsiveness,inhibition of airway inflammation,inhibition of lung IL-4 responses
C/C(=C\C(=O)N[C@H](C(=O)N1CCC[C@H]1C(=O)N1CCCc2ccccc21)C(C)(C)C)c1ccc(C(F)(F)P(=O)(OCOC(=O)C(C)(C)C)OCOC(=O)C(C)(C)C)cc1 [PM-86I],intermediately effective,maximally effective,maximally effective

# Same assay, conditions: dose of 50 micrograms
row,Compound,inhibition of airway hyperresponsiveness
1,C/C(=C\C(=O)N[C@H](C(=O)N1CCC[C@H]1C(=O)N1CCCc2ccccc21)C(C)(C)C)c1ccc(C(F)(F)P(=O)(OCOC(=O)C(C)(C)C)OCOC(=O)C(C)(C)C)cc1 [PM-86I],maximally effective

# Same assay, conditions: dose of 50 micrograms; to sham-treated levels
row,Compound,lung inflammation and IL-4 responses
1,C/C(=C\C(=O)N[C@H](C(=O)N1CCC[C@H]1C(=O)N1CCCc2ccccc21)C(C)(C)C)c1ccc(C(F)(F)P(=O)(OCOC(=O)C(C)(C)C)OCOC(=O)C(C)(C)C)cc1 [PM-86I],rebound

# Target: T1, STAT6
# Assay: Inhibition of IL-4 (and IL-13) stimulated phosphorylation of STAT6 in Beas-2B cells, western blot
# Type: cell-based
# Set-up: endogenous in cells; host or cells: Beas-2B immortalized human airway cells
# Conditions: dose response
# Protocol: Compound PM-241H inhibited the phosphorylation of Tyr641 of STAT6 in Beas-2B cells stimulated with IL-4 and IL-13.
# as §1
# Cells or lungs were isolated and lysed in RIPA buffer (9806S; Cell Signaling, Danvers, Mass.), protein was quantified using BCA Protein Assay Reagent (23227; Thermo Fisher Scientific, Rockford, Ill.) and denatured in Laemmli sample buffer (161-0737; Bio-Rad, Hercules, Calif.) according to manufacturer's protocol. Proteins were separated on SDS-Page gels were hand-poured using a standard electrophoresis unit (Bio-Rad, Hecules, Calif.) and transferred to a membrane using iBlot Gel Transfer Device (IB 1001; Invitrogen, Grand Island, N.Y.). Membranes were blocked in 2% FBS PBST and probed for c-Src, p-c-Src, pErk1/2, Erk1/2, p STAT6, STAT6, pSTAT3, STAT3, pSTAT5, STAT5, Shp-1, and β-actin. Signal was detected with a ChemiDoc XRS+ system (BioRad; Hercules, Calif.).
row,Compound,IC50 [nM]
1,C/C(=C\C(=O)N[C@H](C(=O)N1CCC[C@H]1C(=O)N1CCc2ccccc2C1)C(C)(C)C)c1ccc(C(F)(F)P(=O)(OCOC(=O)C(C)(C)C)OCOC(=O)C(C)(C)C)cc1 [PM-81I],50 to 500
2,C/C(=C\C(=O)N[C@H](C(=O)N1CCC[C@H]1C(=O)N1CCc2ccccc21)C(C)(C)C)c1ccc(C(F)(F)P(=O)(OCOC(=O)C(C)(C)C)OCOC(=O)C(C)(C)C)cc1 [PM-63I],50 to 500
3,C/C(=C\C(=O)N[C@H](C(=O)N1CCC[C@H]1C(=O)N1CCCCC1)C(C)(C)C)c1ccc(C(F)(F)P(=O)(OCOC(=O)C(C)(C)C)OCOC(=O)C(C)(C)C)cc1 [PM-74I],50
4,C/C(=C\C(=O)N[C@H](C(=O)N1CCC[C@H]1C(=O)N1CCCCc2ccccc21)C(C)(C)C)c1ccc(C(F)(F)P(=O)(OCOC(=O)C(C)(C)C)OCOC(=O)C(C)(C)C)cc1 [PM-80I],50 to 500
5,C/C(=C\C(=O)N[C@H](C(=O)N1CCC[C@H]1C(=O)N1CCCc2ccccc21)C(C)(C)C)c1ccc(C(F)(F)P(=O)(OCOC(=O)C(C)(C)C)OCOC(=O)C(C)(C)C)cc1 [PM-86I],50 to 500

# Source: patent publication US10385080B2, “STAT6 inhibitors” (Board of Regents, The University of Texas System, priority 2013, dated 2019)
